This passage reports EC50 results from patent US9932332B2, “FXR (NR1H4) modulating compounds” (Gilead Sciences, Inc., priority 2016, dated 2018).

As a reminder, the EC50 is the midpoint of the concentration-response curve.

The experiment deals with FXR ligand binding domain (Homo sapiens (Human), UniProt Q96RI1). In words: Mammalian one hybrid (M1H) Gal4 reporter gene assay in HEK293 cells. Type of experiment: cell-based. The conditions noted are these: Gal4-FXR-LBD luciferase reporter, 16 h incubation. The protocol: Determination of a ligand mediated Gal4 promoter driven transactivation to quantify ligand binding mediated activation of FXR was performed as follows: The cDNA part encoding the FXR ligand binding domain was cloned into vector pCMV-BD (Stratagene) as a fusion to the yeast GAL4 DNA binding domain under the control of the CMV promoter. The amino acid boundaries of the ligand binding domain were amino acids 187-472 of Database entry NM_005123 (RefSeq). The plasmid pFR-Luc (Stratagene) was used as the reporter plasmid, containing a synthetic promoter with five tandem repeats of the yeast GAL4 binding sites, driving the expression of the Photinus pyralis (American firefly) luciferase gene as the reporter gene. In order to improve experimental accuracy the plasmid pRL-CMV (Promega) was cotransfected. pRL-CMV contains the constitutive CMV promoter, controlling the expression of the Renilla reniformis luciferase. […] Cells were incubated for additional 16 h before firefly and renilla luciferase activities were measured sequentially in the same cell extract using a Dual-Light-Luciferase-Assay system (Dyer et al., Anal. Biochem. 2000, 282, 158-161). […]
Chain of FXR ligand binding domain (Q96RI1 other isoform, or with tags, fused parts or gaps): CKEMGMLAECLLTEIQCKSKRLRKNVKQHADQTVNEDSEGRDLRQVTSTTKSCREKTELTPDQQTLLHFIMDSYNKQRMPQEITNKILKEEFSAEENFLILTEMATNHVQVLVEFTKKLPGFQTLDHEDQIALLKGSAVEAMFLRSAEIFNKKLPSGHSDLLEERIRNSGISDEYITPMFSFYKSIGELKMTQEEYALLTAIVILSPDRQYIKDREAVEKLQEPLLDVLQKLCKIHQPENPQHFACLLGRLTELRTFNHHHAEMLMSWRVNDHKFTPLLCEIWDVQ
In general terms: A reporter such as luciferase makes a cellular process visible.

The compound `O=C(O)c1cc(F)c2nc(C3(O)C4COCC3CC(OCc3c(-c5c(Cl)cccc5Cl)noc3C3CC3)C4)sc2c1` [Example 1, 2-((1R,5S,9S)-7-((5-Cyclopropyl-3-(2,6-dichlorophenyl)isoxazol-4-yl)methoxy)-9-hydroxy-3-oxabicyclo[3.3.1]nonan-9-yl)-4-fluorobenzo[d]thiazole-6-carboxylic acid] came in with an EC50 of 216 nM.

In the case of `O=C(O)c1ccc2nc(C3(O)C4COCC3CC(OCc3c(-c5c(Cl)cccc5Cl)noc3C3CC3)C4)sc2c1` [Example 2, 2-((1R,5S,9S)-7-((5-Cyclopropyl-3-(2,6-dichlorophenyl)isoxazol-4-yl)methoxy)-9-hydroxy-3-oxabicyclo[3.3.1]nonan-9-yl)benzo[d]thiazole-6-carboxylic acid], it took 175 nM to reach a half-maximal effect (EC50).
